Reference: patent US12162840B2, “Herbicidal compositions” (SYNGENTA PARTICIPATIONS AG, priority 2018, dated 2024)

Legend:
Assay type in all cases: in vivo
[1] = tested on: Amaranthus retoflexus (AMARE); test: B1 Post-emergence efficacy Test 1; settings: post-emergence application, 1000 g/ha, evaluated after 13 days
Method in brief: (§1)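 Seedlings grown 8 days in soil pots in a glasshouse (24/16 °C day/night, 14 h light, 65% humidity) were sprayed post-emergence at 1000 g/ha from acetone/water (50:50) with 0.5% Tween 20. Percent damage was scored 13 days later on a five-point scale (5=80-100% to 1=0-19%).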

[2] = tested on: Echinochloa crus-galli (ECHCG); test: B1 Post-emergence efficacy Test 1; settings: post-emergence application, 1000 g/ha, evaluated after 13 days
Method in brief: as §1

[3] = tested on: Ipomoea hederacea (IPOHE); test: B1 Post-emergence efficacy Test 1; settings: post-emergence application, 1000 g/ha, evaluated after 13 days
Method in brief: as §1

Lolium perenne (LOLPE) = test: B1 Post-emergence efficacy Test 1; settings: post-emergence application, 1000 g/ha, evaluated after 13 days
Method in brief: as §1

Setaria faberi (SETFA) = test: B1 Post-emergence efficacy Test 1; settings: post-emergence application, 1000 g/ha, evaluated after 13 days
Method in brief: as §1

Solanum nigrum (SOLNI) = test: B1 Post-emergence efficacy Test 1; settings: post-emergence application, 1000 g/ha, evaluated after 13 days
Method in brief: as §1

[4] = tested on: cool season plant species; test: B2 Post-emergence efficacy Test 2, cool season plant species; settings: 15 days after application, 0=no damage, 100=total kill
Method in brief: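 Plants at 12 days post-sowing were sprayed with active ingredient formulated in IF50 plus 0.2% v/v Genapol XO80, then grown in a glasshouse (24/18 °C or 20/16 °C day/night, 16 h light, 65% humidity). Damage scored 15 days after application on 0–100 scale (100 = total kill).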

Cc1nn(C)c(=O)c(-c2c(F)ccc(Cl)c2CCc2ccc(Cl)cc2)c1OC(=O)C(C)C [Compound 1.089]
5 (5=80-100%): percentage damage caused to the plant, five point scale, AMARE [1] | percentage damage caused to the plant, five point scale, ECHCG [2] | percentage damage caused to the plant, five point scale, IPOHE [3] | percentage damage caused to the plant, five point scale, LOLPE (Lolium perenne (LOLPE)) | percentage damage caused to the plant, five point scale, SETFA (Setaria faberi (SETFA)) | percentage damage caused to the plant, five point scale, SOLNI (Solanum nigrum (SOLNI))
40: Herbicidal activity (0-100 scale) LOLPE ([4]; 15 g/Ha) | Herbicidal activity (0-100 scale) POAAN ([4]; 30 g/Ha)
90: Herbicidal activity (0-100 scale) ALOMY ([4]; 500 g/Ha) | Herbicidal activity (0-100 scale) AVEFA ([4]; 250 g/Ha) | Herbicidal activity (0-100 scale) AVEFA ([4]; 500 g/Ha) | Herbicidal activity (0-100 scale) BEAVA ([4]; 15 g/Ha) | Herbicidal activity (0-100 scale) BEAVA ([4]; 250 g/Ha) | Herbicidal activity (0-100 scale) BEAVA ([4]; 500 g/Ha) | Herbicidal activity (0-100 scale) BRSNN ([4]; 60 g/Ha) | Herbicidal activity (0-100 scale) BRSNN ([4]; 125 g/Ha) | Herbicidal activity (0-100 scale) BRSNN ([4]; 250 g/Ha) | Herbicidal activity (0-100 scale) BRSNN ([4]; 500 g/Ha) | Herbicidal activity (0-100 scale) CHEAL ([4]; 30 g/Ha) | Herbicidal activity (0-100 scale) CHEAL ([4]; 60 g/Ha) | Herbicidal activity (0-100 scale) GALAP ([4]; 500 g/Ha) | Herbicidal activity (0-100 scale) LOLPE ([4]; 125 g/Ha) | Herbicidal activity (0-100 scale) LOLPE ([4]; 250 g/Ha) | Herbicidal activity (0-100 scale) LOLPE ([4]; 500 g/Ha) | Herbicidal activity (0-100 scale) POAAN ([4]; 125 g/Ha) | Herbicidal activity (0-100 scale) SINAR ([4]; 60 g/Ha) | Herbicidal activity (0-100 scale) SINAR ([4]; 125 g/Ha) | Herbicidal activity (0-100 scale) SINAR ([4]; 250 g/Ha) | Herbicidal activity (0-100 scale) SINAR ([4]; 500 g/Ha) | Herbicidal activity (0-100 scale) STEME ([4]; 15 g/Ha) | Herbicidal activity (0-100 scale) STEME ([4]; 30 g/Ha) | Herbicidal activity (0-100 scale) STEME ([4]; 60 g/Ha) | Herbicidal activity (0-100 scale) STEME ([4]; 125 g/Ha) | Herbicidal activity (0-100 scale) STEME ([4]; 250 g/Ha) | Herbicidal activity (0-100 scale) STEME ([4]; 500 g/Ha) | Herbicidal activity (0-100 scale) VERPE ([4]; 60 g/Ha) | Herbicidal activity (0-100 scale) VERPE ([4]; 125 g/Ha)
20: Herbicidal activity (0-100 scale) ALOMY ([4]; 15 g/Ha) | Herbicidal activity (0-100 scale) GALAP ([4]; 30 g/Ha) | Herbicidal activity (0-100 scale) HORVW ([4]; 60 g/Ha) | Herbicidal activity (0-100 scale) HORVW ([4]; 125 g/Ha) | Herbicidal activity (0-100 scale) KCHSC ([4]; 30 g/Ha) | Herbicidal activity (0-100 scale) POAAN ([4]; 15 g/Ha) | Herbicidal activity (0-100 scale) TRZAW ([4]; 60 g/Ha)
0: Herbicidal activity (0-100 scale) BROTE ([4]; 15 g/Ha) | Herbicidal activity (0-100 scale) BROTE ([4]; 30 g/Ha) | Herbicidal activity (0-100 scale) TRZAW ([4]; 15 g/Ha) | Herbicidal activity (0-100 scale) TRZAW ([4]; 30 g/Ha)
60: Herbicidal activity (0-100 scale) BROTE ([4]; 250 g/Ha) | Herbicidal activity (0-100 scale) HORVW ([4]; 500 g/Ha) | Herbicidal activity (0-100 scale) KCHSC ([4]; 125 g/Ha) | Herbicidal activity (0-100 scale) KCHSC ([4]; 250 g/Ha) | Herbicidal activity (0-100 scale) KCHSC ([4]; 500 g/Ha) | Herbicidal activity (0-100 scale) TRZAW ([4]; 250 g/Ha)
50: Herbicidal activity (0-100 scale) ALOMY ([4]; 30 g/Ha) | Herbicidal activity (0-100 scale) ALOMY ([4]; 60 g/Ha) | Herbicidal activity (0-100 scale) KCHSC ([4]; 60 g/Ha)
100: Herbicidal activity (0-100 scale) CHEAL ([4]; 125 g/Ha) | Herbicidal activity (0-100 scale) CHEAL ([4]; 250 g/Ha) | Herbicidal activity (0-100 scale) CHEAL ([4]; 500 g/Ha) | Herbicidal activity (0-100 scale) VERPE ([4]; 250 g/Ha) | Herbicidal activity (0-100 scale) VERPE ([4]; 500 g/Ha)
80: Herbicidal activity (0-100 scale) ALOMY ([4]; 125 g/Ha) | Herbicidal activity (0-100 scale) ALOMY ([4]; 250 g/Ha) | Herbicidal activity (0-100 scale) AVEFA ([4]; 125 g/Ha) | Herbicidal activity (0-100 scale) BEAVA ([4]; 30 g/Ha) | Herbicidal activity (0-100 scale) BEAVA ([4]; 60 g/Ha) | Herbicidal activity (0-100 scale) BEAVA ([4]; 125 g/Ha) | Herbicidal activity (0-100 scale) BRSNN ([4]; 15 g/Ha) | Herbicidal activity (0-100 scale) BRSNN ([4]; 30 g/Ha) | Herbicidal activity (0-100 scale) CHEAL ([4]; 15 g/Ha) | Herbicidal activity (0-100 scale) LOLPE ([4]; 60 g/Ha) | Herbicidal activity (0-100 scale) POAAN ([4]; 250 g/Ha) | Herbicidal activity (0-100 scale) SINAR ([4]; 30 g/Ha) | Herbicidal activity (0-100 scale) VERPE ([4]; 30 g/Ha)
70: Herbicidal activity (0-100 scale) AVEFA ([4]; 30 g/Ha) | Herbicidal activity (0-100 scale) AVEFA ([4]; 60 g/Ha) | Herbicidal activity (0-100 scale) BROTE ([4]; 500 g/Ha) | Herbicidal activity (0-100 scale) LOLPE ([4]; 30 g/Ha) | Herbicidal activity (0-100 scale) POAAN ([4]; 60 g/Ha) | Herbicidal activity (0-100 scale) POAAN ([4]; 500 g/Ha) | Herbicidal activity (0-100 scale) SINAR ([4]; 15 g/Ha) | Herbicidal activity (0-100 scale) TRZAW ([4]; 500 g/Ha) | Herbicidal activity (0-100 scale) VERPE ([4]; 15 g/Ha)
10: Herbicidal activity (0-100 scale) BROTE ([4]; 60 g/Ha) | Herbicidal activity (0-100 scale) GALAP ([4]; 15 g/Ha) | Herbicidal activity (0-100 scale) HORVW ([4]; 15 g/Ha) | Herbicidal activity (0-100 scale) HORVW ([4]; 30 g/Ha) | Herbicidal activity (0-100 scale) KCHSC ([4]; 15 g/Ha)
30: Herbicidal activity (0-100 scale) AVEFA ([4]; 15 g/Ha) | Herbicidal activity (0-100 scale) BROTE ([4]; 125 g/Ha) | Herbicidal activity (0-100 scale) GALAP ([4]; 125 g/Ha) | Herbicidal activity (0-100 scale) GALAP ([4]; 250 g/Ha) | Herbicidal activity (0-100 scale) HORVW ([4]; 250 g/Ha) | Herbicidal activity (0-100 scale) TRZAW ([4]; 125 g/Ha)
